Assay results from US20230000827A1, “INHIBITORS OF HSP70 PROTEIN” (INSERM (INSTITUTE NATIONAL DE LA SANTÉ ET DE LA RECHERCHE …, priority 2019, published 2023).

Legend:
[1] = target: T1, HSP70/A18 interaction (Homo sapiens, UniProt P0DMV8); experiment: AptaScreen high-throughput yeast two-hybrid dual luminescence screening of A18/HSP70 association; type: cell-based; conditions: for IC50: dose-response, inhibition of A18 binding to HSP70; for Confirmation inhibition: hit confirmation; for inhibition at 10 µM: molecules screened at 10 μM
T1 construct: expressed in transfected cells
T1 sequence (P0DMV8 whole entry): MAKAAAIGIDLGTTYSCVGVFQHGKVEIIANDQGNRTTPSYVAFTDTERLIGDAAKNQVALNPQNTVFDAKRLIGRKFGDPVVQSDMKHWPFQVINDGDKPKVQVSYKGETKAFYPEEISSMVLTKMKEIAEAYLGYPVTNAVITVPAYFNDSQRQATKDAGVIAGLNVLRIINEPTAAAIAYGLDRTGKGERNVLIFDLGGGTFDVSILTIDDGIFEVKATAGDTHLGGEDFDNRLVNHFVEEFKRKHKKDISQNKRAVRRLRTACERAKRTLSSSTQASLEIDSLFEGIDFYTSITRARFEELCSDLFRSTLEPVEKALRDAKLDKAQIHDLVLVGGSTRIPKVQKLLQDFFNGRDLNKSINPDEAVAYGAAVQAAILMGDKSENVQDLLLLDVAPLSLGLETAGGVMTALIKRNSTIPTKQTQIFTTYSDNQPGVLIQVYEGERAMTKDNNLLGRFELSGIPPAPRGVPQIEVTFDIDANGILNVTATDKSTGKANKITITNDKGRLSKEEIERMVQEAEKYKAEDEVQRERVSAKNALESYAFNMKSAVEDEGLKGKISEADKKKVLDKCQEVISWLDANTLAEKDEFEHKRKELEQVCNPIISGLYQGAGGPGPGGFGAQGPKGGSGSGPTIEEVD
Protocol: Table 1. High throughput screening of chemical agonists of the A18 peptide aptamer. The screening was based on the ability of the molecules to inhibit the association A18/HSP70.
A high-throughput screening assay, AptaScreen™ (developed by Aptanomics SA; (Baines I C et al. Drug Discov Today. 2006;11:334-341; Rerole A L, et al. Cancer Res 20119;71:484-495)) was performed by the Company Imaxio (Lyon, France) on a library of almost 60,000 small molecules. The AptaScreen™ assay is based on an automated dual luminescence (luc and ruc reporter genes) yeast two-hybrid assay, with HSP70 expressed as a ‘bait’ and A18 aptamer expressed as a ‘prey’. The HSP70/A18 interaction directs the transcription of the luc reporter gene, while in the same assay a control protein/aptamer couple directs the transcription of the ruc reporter. A small molecule can be considered as ‘hit candidate’ when it inhibits the interaction between HSP70 and A18 (i.e. decreases the luciferase signal), but not the control interaction (i.e. no or little change in the ruc signal). Molecules were screened at a concentration of 10 μM and then hit candidates were confirmed by dose-response assays, following the standard protocol (Rerole A L, et al. Cancer Res 20119;71:484-495).
A high-throughput screening assay, AptaScreen™ (developed by Aptanomics SA; ^22,23), was performed by the Company Imaxio (Lyon, France) on a library of almost 60,000 small molecules including most of the marketed drugs. The AptaScreen™ assay is based on an automated dual luminescence (luc and ruc reporter genes) yeast two-hybrid assay, with HSP70 expressed as a ‘bait’ and a peptide aptamer (A18), the inventors previously isolated that bound to the ATP domain of HSP70 expressed as a ‘prey’ (Rerole A L, et al. Cancer Res 20119;71:484-495). A small molecule can be considered as ‘hit candidate’ when it inhibits the interaction between HSP70 and A18 (i.e. decreases the luciferase signal). Molecules were screened at a concentration of 10 μM. Eight molecules (hit candidates) were initially identified. From the dose-response studies, three of them were retained on the basis of their specificity and high inhibitory activity against A18 binding to HSP70 (Table 1 and 2).

[2] = target: T1, HSP70/A18 interaction; experiment: Ability to block HSP70/A18 interaction (Biacore); type: binding; conditions: block of HSP70/A18 interaction; read-out: Activity profil/50% effective concentration (EC50)
From the text: Table 2. Selected “Hits” with high inhibitory activity against A18 binding to HSP70. Their chemical structure is shown as well as their ability to block HSP70/A18 interaction (Biacore).

[3] = target: recombinant HSP70 (Homo sapiens, UniProt P0DMV8); experiment: HSP70 chaperone activity, protein thermolability (aggregation) assay; type: biochemical; conditions: 1 μM, heat shock 55° C., 1 h, recombinant HSP70 10 ng
recombinant HSP70, sequence (P0DMV8 whole entry): as above
Protocol: FIG. 2: Small molecules hits A, B and C inhibit HSP70 chaperone activity. A) Protein aggregation was determined in the presence or absence of recombinant HSP70 (10 ng). When indicated A18 or molecules A, B and C were added (1 μM). B) Protein aggregation was determined in the presence or absence of recombinant HSP70, HSC70 or HSP90 (10 ng).
When indicated A18 or molecules A, B and C were added (1 μM). A0, a non-relevant peptide aptamer was used here as a negative control. Values are normalized for each HSP. 100% chaperone effect being the inhibition of protein aggregation induced by addition of the recombinant chaperones.
HSP70 chaperone activity was evaluated with a protein thermolability assay. HSF1−/− MEFs extracts were incubated 20 minutes on ice in lysis buffer (50 mM HEPES, 150 mM NaCl, 5 mM EDTA, 0.1% NP40) supplemented with protease inhibitors (Roche, France). […]
Cellular extracts, to which recombinant HSP70, HSP90 or HSC70 were added with or without the small molecules to test, were diluted to a final concentration of 2 mg. mL-1 in pH 7 Tris-HCl buffer and heated at 55° C. during 1 hour. After g−16,000 centrifugation at 4° C. during 10 minutes, supernatant native protein quantity was determined by Lowry method (Dc Assay Kits, Bio-Rad). This final protein concentration was then compared to the initial protein concentration in supernatants to quantify denatured proteins. […]

[4] = system: Human cervix cancer Hela cells; experiment: Chemo-sensitization to cisplatin, cell survival colorimetric assay, HeLa; type: cell-based; conditions: molecule 2 μM with cisplatin 25 μM, 48 h
Protocol: (§1) FIG. 3. The chemical molecule hits sensitize cancer cells to cisplatin. A) Human cervix HeLa or B) mouse colorectal cancer CT-26 cells were incubated during 48 h with cisplatin (25 μM) in the presence of absence of molecules A, B and C (2 μM). Cell survival was measured by a colorimetric assay staining.
(§2) 3.5×10^4 adherent cells were plated onto 24-well culture plates in complete medium. Cells were treated with small molecules at various concentrations (1 μM to 30 μM) for 4 hours to determine cellular IC50. Then, cells of half of each 24-well culture plates were treated with cisplatin (CDDP, 25 μM) for 48 hours. Cell death was measured by the crystal violet colorimetric assay staining.
(§3) To study the effect of the molecules in cancer cells, the inventors used two different cancer cells lines: Human cervix cancer Hela cells and mouse colorectal cancer CT-26. Cells were treated with the small molecule hit (2 μM) either alone or together with cisplatin for 48 hours and cell survival was determined. […] Cells seem to die mainly by apoptosis, as detected by the amount of Annexin V positive/propidium iodide negative cells obtained after treatment with the molecule (FIG. 5). The inventors conclude that the hit candidates block HSP70 chaperone activity and sensitize cancer cells to apoptosis induced by cisplatin.

[5] = system: mouse colorectal cancer CT-26; experiment: Chemo-sensitization to cisplatin, cell survival colorimetric assay, CT-26; type: cell-based; conditions: CT-26, molecule 2 μM with cisplatin 25 μM, 48 h
Protocol: as §1, §2, §3

[6] = Solubility (statement); type: physicochemical

In the case of `CCOc1ccc(C)cc1S(=O)(=O)n1nnc2ccccc21` [Molecule B], the HSP70 specificity [1] is reported as “YES”, the IC50 [1] is reported as 0.2 µM and the Confirmation inhibition [1] is reported as 59. The inhibition at 10 µM [1] was 105%, the EC50 [2] was 0.2 µM and the “Inhibition of HSP70 chaperone activity” value [3] was “much more important inhibition”. The “Cell death induced by cisplatin” value [4] was “most important effect”, the “Cell death induced by cisplatin” value [5] was “most important effect” and the Solubility [6] was “hardly soluble”.

In the case of `O=C1N=C(N2CCCCC2)S/C1=C\c1ccccc1F` [Molecule A], the HSP70 specificity [1] is reported as “YES”, the IC50 [1] is reported as 19.6 µM and the Confirmation inhibition [1] is reported as 34. For the same molecule, the inhibition at 10 µM [1] was 105%, the EC50 [2] was 19.6 µM and the “Inhibition of HSP70 chaperone activity” value [3] was “only partially blocked”.
